# Assay results taken from patent publication US20020045638A1, “Method of treating estrogen receptor positive carcinoma” (priority 2000, published 2002).
# What was measured:
# [1] = tested on: MCF-7 human breast cancer cells; assay: Inhibition of growth of MCF-7 breast cancer cells (MTT), with MacSynergy II synergy analysis;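 further: cells treated five or six days with single agents or combinations, growth read by MTT, synergy surface equals observed % inhibition minus Bliss additive prediction, values under 0% signal antagonism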
# Method: MCF-7 human breast cancer cells were maintained at 37° C. in a humidified atmosphere of 5% CO2 and 95% air in IMEM medium supplemented with 10% fetal bovine serum. […] One day before the experiment, cells were plated in 96-well plates at a cell density of 2,500 cells/well in IMEM medium supplemented with 10% fetal bovine serum. The next day, cells were treated with various concentrations of antiestrogen and rapamycin 42-ester with 3-hydroxy-2-(hydroxymethyl)-2-methylpropionic acid (referred to as CCI-779 in the tables below). Five or six-days later, cell growth was monitored. MTT solution (20 ul) (0.5 mg/ml) was added to each well and cells were incubated for an additional 4 h. The solution was then removed and 150 ul of DMSO added. The intensity of dark blue color corresponding to number of cells was read at 540 nm with an automated plate reader.
# Briefly, theoretical additive interactions were calculated from the dose-response curves of each individual drug based on Bliss independence model. The calculated additive surface was then subtracted from the experimental surface to obtain a synergy surface representing % inhibition above the calculated additive value-synergy index. […] Likewise, any peak below the 0% plane is indicative of antagonism.
# [2] = tested on: BG-1 human ovarian cancer cells; assay: Inhibition of growth of BG-1 ovarian cancer cells (MTT), with MacSynergy II synergy analysis; format: cell-based; details: for Percent Inhibition: Table G, CCI-779 0 nM
# Method: In these test procedures, rapamycin 42-ester with 3-hydroxy-2-(hydroxymethyl)-2-methylpropionic acid was used as a representative rapamycin, and 2-(4-hydroxy-phenyl)-3-methyl-1-[4-(2-piperdin-1-yl-ethoxy)-benzyl-1 H-indol-5-ol, raloxifene, and 4-hydroxytamoxifen were used as representative antiestrogens.
# One day before the experiment, cells were plated in 96-well plates at a cell density of 2,500 cells/well in IMEM medium supplemented with 10% fetal bovine serum. The next day, cells were treated with various concentrations of antiestrogen and rapamycin 42-ester with 3-hydroxy-2-(hydroxymethyl)-2-methylpropionic acid (referred to as CCI-779 in the tables below). Five or six-days later, cell growth was monitored.
# MCF-7 tumors = assay: Growth of MCF-7 breast carcinoma implanted in nude mice; format: in vivo; details: for Tumor size (mean ± standard error): 20 mg/kg ERA-923 PO qd days 1-35
# Method: In the third standard pharmacological test procedure, mice implanted with MCF-7 tumors were treated with a combination of ERA-923 and CCI-779. […] ERA-923 was dissolved in 1% Tween 80 and 0.9% NaCl Injection USP. Drug was aliquoted into daily doses using 10.0 ml glass bottles and frozen at −20° C. until needed. CCI-779 was made fresh using a 5% ETOH, 4.9% Phosal and 0.1% Tween 80 in Sterile Water. 0.2 ml of each drug was given orally starting the day after tumor implantation. ERA 923 was given daily for the duration of the experiment and CCI-779 was given every other day for the first 10 days. The control vehicles were given on the same regime as the drugs. MCF7 cells were cultured in IMEM containing 5% Fetal Bovine Serum with passages varying from 2-20. After trypsinization tumors were resuspended in IMEM with 2% Serum at a 1:1 ratio with Matrigel. 10 million cells were injected subcutaneously into the mammary tissue of each mouse using a 1.0 ml tuberculin syringe with a 23 3/4 gauge needle. Five to six week old female ovariectomized athymic nu/nu mice (Charles River Labs: Wilmington, Mass.) weighing from 20.0-23.0 g were used. The animals were housed 5 to a cage in a Microisolator Open Rack System (Lab Products: Maywood, N.J.). Each mouse received a 17β-Estradiol pellet (0.72 mg/pellet-60 day release). The pellets were injected with a 10 gauge trochar into the lateral side of the neck between the ear and the shoulder 1-2 weeks prior to tumor injection. Control groups were 15 mice/vehicle whereas the drug groups were 10 mice/drug. Tumors were measured weekly by means of solar calipers (Cole-Parmer Instuments: Vernon Hills, Ill.) and tumor weights were estimated from tumor diameters by the following formula:
# Tumor weight (mg)=tumor length (mm)×tumor width (mm)^2/2.
# Mice were euthanized 36 days after tumor injection by CO2 inhalation. […] Nude mice bearing MCF-7 tumors were given ERA-923, CCI-779 or the combination of both drugs.
# [3] = MCF-7, antiestrogen in combination with CCI-779, MacSynergy II, Bliss independence model
# [4] = BG-1, antiestrogen in combination with CCI-779, MacSynergy II, Bliss independence model
structure (smiles),measurement,setting,value
Cc1c(-c2ccc(O)cc2)n(Cc2ccc(OCCN3CCCCC3)cc2)c2ccc(O)cc12 [ERA-923],increase of growth-inhibitory effect as estimated by the IC50,[1]; ERA-923 in the presence of non-inhibitory concentrations of CCI-779,approximately 10 fold
same,Antagonsim,[1]; [3],0.0 μM^2%
same,Synergy,[1]; [3],138.0 μM^2%
same,Percent Inhibition,"[1]; Table A, CCI-779 0 nM, ERA-923 0.25 nM",9%
same,Percent Inhibition,"[1]; Table A, CCI-779 0 nM, ERA-923 0.5 nM",7.59%
same,Percent Inhibition,"[1]; Table A, CCI-779 0 nM, ERA-923 1 nM",37.56%
same,Percent Inhibition,"[1]; Table A, CCI-779 0 nM, ERA-923 2 nM",54.65%
same,Percent Inhibition,"[1]; Table A, CCI-779 0 nM, ERA-923 3 nM",59.39%
same,Percent Inhibition,"[1]; Table A, CCI-779 0 nM, ERA-923 4 nM",60.04%
same,Percent Inhibition,"[1]; Table A, CCI-779 0 nM, ERA-923 5 nM",61.12%
same,Percent Inhibition,"[1]; Table D, ERA-923 0 nM + ERA-923 0.25 nM",−0.78%
same,Percent Inhibition,"[1]; Table D, ERA-923 0 nM + ERA-923 0.5 nM",26.09%
same,Percent Inhibition,"[1]; Table D, ERA-923 0 nM + ERA-923 1 nM",54.91%
same,Percent Inhibition,"[1]; Table D, ERA-923 0 nM + ERA-923 2 nM",71.82%
same,Percent Inhibition,"[1]; Table D, ERA-923 0 nM + ERA-923 3 nM",87.65%
same,Percent Inhibition,"[1]; Table D, ERA-923 0 nM + ERA-923 4 nM",78.72%
same,Percent Inhibition,"[1]; Table D, ERA-923 0 nM + ERA-923 5 nM",79.25%
same,Percent Inhibition,"[1]; Table D, ERA-923 0.25 nM + ERA-923 0 nM",6.69%
same,Percent Inhibition,"[1]; Table D, ERA-923 0.25 nM + ERA-923 0.25 nM",35.93%
same,Percent Inhibition,"[1]; Table D, ERA-923 0.25 nM + ERA-923 0.5 nM",56.79%
same,Percent Inhibition,"[1]; Table D, ERA-923 0.25 nM + ERA-923 1 nM",64.27%
same,Percent Inhibition,"[1]; Table D, ERA-923 0.25 nM + ERA-923 2 nM",76.33%
same,Percent Inhibition,"[1]; Table D, ERA-923 0.25 nM + ERA-923 3 nM",78.99%
same,Percent Inhibition,"[1]; Table D, ERA-923 0.25 nM + ERA-923 4 nM",78.39%
same,Percent Inhibition,"[1]; Table D, ERA-923 0.25 nM + ERA-923 5 nM",79.68%
same,Percent Inhibition,"[1]; Table D, ERA-923 0.5 nM + ERA-923 0 nM",8.17%
same,Percent Inhibition,"[1]; Table D, ERA-923 0.5 nM + ERA-923 0.25 nM",53.61%
same,Percent Inhibition,"[1]; Table D, ERA-923 0.5 nM + ERA-923 0.5 nM",63.08%
same,Percent Inhibition,"[1]; Table D, ERA-923 0.5 nM + ERA-923 1 nM",68.58%
same,Percent Inhibition,"[1]; Table D, ERA-923 0.5 nM + ERA-923 2 nM",73.71%
same,Percent Inhibition,"[1]; Table D, ERA-923 0.5 nM + ERA-923 3 nM",81.21%
same,Percent Inhibition,"[1]; Table D, ERA-923 0.5 nM + ERA-923 4 nM",79.57%
same,Percent Inhibition,"[1]; Table D, ERA-923 0.5 nM + ERA-923 5 nM",81.43%
same,Percent Inhibition,"[1]; Table D, ERA-923 1 nM + ERA-923 0 nM",42.1%
same,Percent Inhibition,"[1]; Table D, ERA-923 1 nM + ERA-923 0.25 nM",66.83%
same,Percent Inhibition,"[1]; Table D, ERA-923 1 nM + ERA-923 0.5 nM",75.09%
same,Percent Inhibition,"[1]; Table D, ERA-923 1 nM + ERA-923 1 nM",74.24%
same,Percent Inhibition,"[1]; Table D, ERA-923 1 nM + ERA-923 2 nM",74.07%
same,Percent Inhibition,"[1]; Table D, ERA-923 1 nM + ERA-923 3 nM",76.56%
same,Percent Inhibition,"[1]; Table D, ERA-923 1 nM + ERA-923 4 nM",80.45%
same,Percent Inhibition,"[1]; Table D, ERA-923 1 nM + ERA-923 5 nM",82.97%
same,Percent Inhibition,"[1]; Table D, ERA-923 2 nM + ERA-923 0 nM",67.81%
same,Percent Inhibition,"[1]; Table D, ERA-923 2 nM + ERA-923 0.25 nM",74.73%
same,Percent Inhibition,"[1]; Table D, ERA-923 2 nM + ERA-923 0.5 nM",75.08%
same,Percent Inhibition,"[1]; Table D, ERA-923 2 nM + ERA-923 1 nM",75.36%
same,Percent Inhibition,"[1]; Table D, ERA-923 2 nM + ERA-923 2 nM",75.03%
same,Percent Inhibition,"[1]; Table D, ERA-923 2 nM + ERA-923 3 nM",78.5%
same,Percent Inhibition,"[1]; Table D, ERA-923 2 nM + ERA-923 4 nM",81.23%
same,Percent Inhibition,"[1]; Table D, ERA-923 2 nM + ERA-923 5 nM",82.02%
same,Percent Inhibition,"[1]; Table D, ERA-923 3 nM + ERA-923 0 nM",52.23%
same,Percent Inhibition,"[1]; Table D, ERA-923 3 nM + ERA-923 0.25 nM",75.24%
same,Percent Inhibition,"[1]; Table D, ERA-923 3 nM + ERA-923 0.5 nM",76.06%
same,Percent Inhibition,"[1]; Table D, ERA-923 3 nM + ERA-923 1 nM",77.68%
same,Percent Inhibition,"[1]; Table D, ERA-923 3 nM + ERA-923 2 nM",76.67%
same,Percent Inhibition,"[1]; Table D, ERA-923 3 nM + ERA-923 3 nM",81.51%
same,Percent Inhibition,"[1]; Table D, ERA-923 3 nM + ERA-923 4 nM",83.2%
same,Percent Inhibition,"[1]; Table D, ERA-923 3 nM + ERA-923 5 nM",82.87%
same,Percent Inhibition,"[1]; Table D, ERA-923 4 nM + ERA-923 0 nM",74.49%
same,Percent Inhibition,"[1]; Table D, ERA-923 4 nM + ERA-923 0.25 nM",79.39%
same,Percent Inhibition,"[1]; Table D, ERA-923 4 nM + ERA-923 0.5 nM",80.92%
same,Percent Inhibition,"[1]; Table D, ERA-923 4 nM + ERA-923 1 nM",77.2%
same,Percent Inhibition,"[1]; Table D, ERA-923 4 nM + ERA-923 2 nM",78.2%
same,Percent Inhibition,"[1]; Table D, ERA-923 4 nM + ERA-923 3 nM",79.28%
same,Percent Inhibition,"[1]; Table D, ERA-923 4 nM + ERA-923 4 nM",83.28%
same,Percent Inhibition,"[1]; Table D, ERA-923 4 nM + ERA-923 5 nM",85.92%
same,Antagonsim,[2]; [4],0.0 μM^2%
same,Synergy,[2]; [4],25.9 μM^2%
same,Percent Inhibition,[2]; ERA-923 0.25 nM,14.72%
same,Percent Inhibition,[2]; ERA-923 0.5 nM,24.14%
same,Percent Inhibition,[2]; ERA-923 1 nM,48.93%
same,Percent Inhibition,[2]; ERA-923 2 nM,57.19%
same,Percent Inhibition,[2]; ERA-923 3 nM,72.54%
same,Percent Inhibition,[2]; ERA-923 4 nM,80.34%
same,Percent Inhibition,[2]; ERA-923 5 nM,75.94%
same,Tumor size (mean ± standard error),MCF-7 tumors; day 14 after tumor implantation,480 ± 91 mg
same,Tumor size (mean ± standard error),MCF-7 tumors; day 21 after tumor implantation,679 ± 127 mg
same,Tumor size (mean ± standard error),MCF-7 tumors; day 28 after tumor implantation,842 ± 163 mg
same,Tumor size (mean ± standard error),MCF-7 tumors; day 36 after tumor implantation,993 ± 197 mg
same,inhibition of tumor growth,"MCF-7 tumors; nude mice bearing MCF-7 tumors, growth inhibition=experimental value−200 (baseline)/control value −200",approximately 35%
